Data taken from patent publication US20030204875A1, “Novel agrobacterium-mediated plant transformation method” (priority 1999, published 2003).
Read-outs that look alike come from different tables or passages of the source.

Assays:
[1] = system: Agrobacterium cells; conditions: for Results (growth of Agrobacterium cells): 15 hours; for OD A660 after 15 hours growth: starting OD 0.2
Experimental: Agrobacterium cultures used for transformation are pre-induced (except as otherwise indicated) by acetosyringone (200 μM) and glucose (2%) in AB based induction medium. The procedure followed was as follows:
Agrobacterium cells were centrifuged at 4° C. for 10 min at 3250 g and the pellet was resuspended in the pre-induction medium to a final optical density of 0.2 at A660 and incubated at 28° C. for 12-15 h.
(§1) During pre-induction, AgNO3 was added at two different levels (20 ? M and 40 ? M final concentration) to the pre-induction medium. The final optical density prior to the induction was adjusted to A660 (OD 0.2). Agrobacterium cells were pre-induced for 15 hours. Measurement of the optical density (measure of growth) was taken at the end of pre-induction, just prior to transformation. Agrobacterium cells pre-induced in the absence of AgNO3 were used as a control.

[2] = system: T-DNA transfer (tumor induction) to Kalanchoe cells
Experimental: Transformation of BMS suspension cells was performed following the protocol described in Table 8. For transforming kalanchoe leaves, a suspension of cells from Agrobacterium strain A281 was applied after performing mechanical wounding as described in White and Nester. The Agrobacterium strain, A136 harboring a binary vector pMON25457 (FIG. 3) was used as a negative control.
as §1

[3] = system: Agrobacterium tumefaciens strain EHA 101
Experimental: Three mls of pre-induced Agrobacterium suspension (A660 OD 4.0) was added to a 6-well tissue culture plate as described. After adding the explants to the Agrobacterium suspension cells, the inoculation was performed for 15 minutes. The Agrobacterium suspension was removed and the embryos were placed on semi-solid medium with or without AgNO3 (20 ? M final concentration). All the tissues were incubated for three days in the dark. The amount of Agrobacterium present was estimated at the beginning by randomly sampling immature embryos immediately after inoculation and again at the end of the co-culture period to determine the number of attached Agrobacterium cells per immature embryo explant.

[4] = system: T-DNA delivery to immature embryos of corn genotype H99×A188; conditions: co-culture with 10 μM AgNO3, three days
Experimental: The Agrobacterium strain was pre-induced as described previously and three mls of pre-induced Agrobacterium suspension (A660 OD 1.0, 2.0, 3.0 and 4.0) was used. After adding the explants the Agrobacterium suspension cells, the inoculation was performed for 15 minutes. The Agrobacterium suspension was removed and embryos were placed on 1/2 MS corn co-culture medium supplemented with 10 ? M AgNO3 (final concentration). The co-culture duration was for three days in the dark. The efficiency of T-NA delivery was estimated by a transient GUS analysis three days after co-culture by incubating embryos directly in GUS staining buffer for 12-15 hours and counting the number of GUS foci per immature embryo explant (Table 20).

[5] = system: corn immature embryos, genotype LH198 X Hi-II; conditions: 20 μM silver nitrate
Description: Corn genotype LH198 X Hi-II was used. Corn immature embryos were isolated as described previously. Approximately 30 immature embryos were inoculated for each treatment with Agrobacterium strain ABI harboring plasmid pMON18365 for five minutes and placed on co-culture media for two to three days. There were 4 replicates per treatment. The four treatments included:
Treatment 1: absence of growth inhibiting agent (in both inoculation and co-culture media)
Treatment 2: absence of agent in inoculation media; presence of agent (20 μM silver nitrate) in co-culture media.
Treatment 3: presence of agent (20 μM silver nitrate) in inoculation media; absent in co-culture media
Treatment 4: presence of agent (20 μM silver nitrate) in both inoculation and co-culture media
Within each treatment, five immature embryos were used for transient analysis. This was repeated across all reps within each treatment. The number of GUS spots was determined on both the scutellar surface (scutellar side up) as shown in Table 23 and the number of GUS spots was determined on the axis side of the embryos as shown in Table 24.

[6] = system: immature embryos of genotype (H99×Pa 91)A188; assay: Transformation efficiency of corn with different growth inhibiting agents during co-culture; format: cell-based; conditions: three days, OD 4.0
Experimental: b) Biological assay (leaf bleach assay). Leaf samples (a leaf punch) from approximately 2-week-old seedlings were placed in wells of 24-well cell culture clusters (Costar Corporation, Cambridge, Mass.). Each well was filled with 0.5 ml aqueous solution composed of 300 mg/L paromomycin (Sigma) and 100 mg/L Benlate (a fungicide made by Du Pont), 100 mg/IL Benlate alone was used as a control. Three leaf samples from the same leaf of each plant were placed in two wells containing paromomycin plus Benlate and one well containing Benlate alone, respectively. Leaf samples from non-transformed plants were used as negative controls. The samples were vacuum-infiltrated in a dessicator using an in-house vacuum system for 5 min and then the clusters were sealed tightly with parafilm before being placed under light (140 μMol m-2s-1). The results were determined after 60 hours.
(§2) Immature embryos of genotype (H99×Pa 91)A188 were isolated as described. […] The Agrobacterium strain was pre-induced as described. The inoculation was performed using a concentration of A660 OD 4.0 for 15 minutes as described. Post inoculation, Agrobacterium suspension was removed and embryos were placed on different semi-solid co-culture media supplemented with various bacteriocidal compounds. All the tissues were incubated for three days in the dark. The transformation protocol followed was as described previously (corn IE transformation) except that the 1st selection with 50 mg/L Paromomycin was replaced with 25 mg/L Paromomycin for 2 weeks and 50 mg/L Paromomycin for 2 additional weeks. Transformation efficiency was calculated based on the number of embryos producing nptII positive plants as determined by a leaf bleach assay as described earlier. Three weeks after the transformation, the quality and growth characteristics of IE-derived callus co-cultured in the presence of different growth inhibiting agents.

[7] = system: IE-derived callus, genotype (H99×Pa 91)A188; conditions: 50 μM in co-culture medium; three weeks after the transformation
Experimental: as §2

[8] = 20 μM AgNO3 in pre-induction medium
[9] = 40 μM AgNO3 in pre-induction medium

O=[N+]([O-])[O-].[Ag+] [AgNO3, silver nitrate]
Results (growth of Agrobacterium cells) [1, 8]: no growth
OD A660 after 15 hours growth [1, 8]: 0.23
Results (growth of Agrobacterium cells) [1, 9]: no growth
OD A660 after 15 hours growth [1, 9]: 0.24
Effect on Agrobacterium cells, plating on semi-solid LB plates ([1]; 15 hour culture period in the presence of AgNO3 (20 or 40 μM)): lethal
Results (T-DNA transfer) ([2]; A281 pre-induced with 20 μM AgNO3): no transfer
Results (T-DNA transfer) ([2]; A281 pre-induced with 40 μM AgNO3): no transfer
Effect on growth of Agrobacterium during co-culture ([3]; 20 μM AgNO3, three days co-culture): significantly inhibited
Results (fold reduction of Agrobacterium colonies/explant) ([3]; 3d co-culture plus 20 μM AgNO3, versus 0d): 30 fold reduction
Average # of Agrobacterium Colonies/Explant ([3]; 3d co-culture plus 20 μM AgNO3, 0d value 3 × 10^5 CFU): 1.0 × 10^4 CFU
Average number of GUS foci/explant ([4]; OD660 1.0, Pre-induced): 7
Average number of GUS foci/explant ([4]; OD660 2.0, Not pre-induced (grown in LB)): 2
Average number of GUS foci/explant ([4]; OD660 2.0, Pre-induced): 28
Average number of GUS foci/explant ([4]; OD660 3.0, Pre-induced): 39
Average number of GUS foci/explant ([4]; OD660 4.0, Not pre-induced (grown in LB)): <1
Average number of GUS foci/explant ([4]; OD660 4.0, Pre-induced): 66
Average # GUS spots/embryo (axis) ([5]; Treatment 2 (inoculation)): 40.8
Average # GUS spots/embryo (scutellar surface) ([5]; Treatment 2 (inoculation)): 82.5
Average # GUS spots/embryo (axis) ([5]; Treatment 3 (co-culture)): 3.8
Average # GUS spots/embryo (scutellar surface) ([5]; Treatment 3 (co-culture)): 81.8
Average # GUS spots/embryo (axis) ([5]; Treatment 4 (both)): 8.4
Average # GUS spots/embryo (scutellar surface) ([5]; Treatment 4 (both)): 58.9
% Transformation ([6]; 20 μM in co-culture medium): 16%
% Transformation ([6]; 50 μM in co-culture medium): 6.3%
Culture response (callus quality) on co-culture media [7]: embryogenically the most competent callus
